Data reported in patent US12030908B2, “Antimicrobial compounds, compositions, and uses thereof” (Lakewood Amedex, Inc., priority 2017, dated 2024).
Entries after “also recorded” stand apart in the source; their conditions may differ.

Columns and labels:
[1] = tested on: Aspergillus fumigatus (ATCC13073); assay: Individual mouse clinical signs (animal condition) in the Aspergillus fumigatus lung infection model (Example 24); format: in vivo, BALB/c mice; design: key: NAD = no abnormality detected
[2] = tested on: Escherichia coli (strain CFT073, TPPS 1041); assay: Initial urinary tract infection model in BALB/c mice, transurethral treatment (Example 9); format: in vivo; conditions: pH 3.5, 1025 mg/kg transurethral
Source text: Female BALB/c mice (20-22 g) ordered from Envigo are acclimated to housing conditions and handled in accordance with Animal Use Protocol (AUP) number TP-08. Animals are fed irradiated Teklad Global 29 18 Rodent Diet and water ad libitum. Mice are housed 6/cage in static cages with irradiated ⅛″ Teklad corn cobbedding 7902 inside bioBubble® clean rooms that provide H.E.P.A filtered air into the bubble environment at 100 complete air changes per hour. The environment is controlled to a temperature range of 74°±4° F. and a humidity range of 30-70%. All procedures carried out in this experiment are conducted in compliance with the laws, regulations, and guidelines of the National Institutes of Health and with the approval of the TransPharm Preclinical Solutions Animal Care and Use Committee.
A clinical isolate of Escherichia coli (strain CFT073, TPPS 1041) are procured from the University of Michigan.
The organism is grown overnight at 37° C. in ambient atmosphere on trypticase soy agar plates supplemented with 5% sheep blood cells. The culture is aseptically swabbed and transferred to tubes of trypticase soy broth. The optical density is determined at 600 nm. The culture is diluted to provide an inoculum of approximately 7.5 log10 CFU per mouse in a volume of 30 μL. Instillation of the bacterial challenge constituted time 0 hour for the study. Inoculum counts are estimated before inoculation by optical density and confirmed after inoculation by dilution and back counts.
One hour prior to bacterial challenge, water is removed from animal cages. […]
The primary endpoint used to assess progress of the infection is mean bacterial burden per gram of urinary bladder tissue. […] Colony forming units (CFU) are enumerated and the total bacterial burden per gram of urinary bladder tissue homogenate is calculated.
The geometric mean CFU, along with standard error of the mean (SEM), are calculated using Microsoft Excel and bar charts are prepared for the data using GraphPad Prism v. […]

[3] = Part C, 1×10^3 conidia/animal, Nu-8 (10%), 3 doses, once daily for 3 days, aerosol, individual animals
[4] = Part D, 1×10^2 conidia/animal, Nu-8 (10%), 5 doses, once daily for 5 days, individual animals

CCCCOP(=O)(O)OC[C@H]1O[C@@H](n2ccc(N)nc2=O)C[C@@H]1OP(=O)(O)OCCCC [Nu-8, sodium ((2R,3S,5R)-5-(4-amino-2-oxopyrimidin-1(2H)-yl)-3-((butoxyoxidophosphor-yl)oxy)tetrahydrofuran-2-yl)methyl butyl phosphate]
Animal Condition Day 1 ([1]; Part A, 3 doses, once daily for 3 days, individual animals 19-24): Normal
Animal Condition Day 1 ([1]; Part A, 5 doses, once daily for 5 days, individual animals 25-30): Normal
Animal Condition Day 1 ([1]; Part B, 3 doses, once daily for 3 days, individual animals 23-30): NAD
Animal Condition Day 1 ([1]; Part B, single dose, individual animals 15-22): NAD
Animal Condition Day 1 [1, 3]: NAD
Animal Condition Day 2 [1, 3]: Animal dull
Animal Condition Day 3 [1, 3]: Animal dull; also recorded: Moribund
Animal Condition Day 1 [1, 4]: NAD
Animal Condition Day 2 [1, 4]: NAD
Animal Condition Day 3 [1, 4]: NAD
Animal Condition Day 4 [1, 4]: NAD
Animal Condition Day 5 [1, 4]: NAD
mean bladder CFU burden ([2]; 20 minutes post-treatment): 2.9 log10
mean bladder CFU burden ([2]; 60 minutes post-treatment): 3.7 log10 CFU
